Laboratory results reported in PubChem BioAssay (NCI).
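Each compound was tested at five concentrations against cells in 96-well plates for 48 hours. Abbreviation: GI50, concentration required for 50% inhibition of growth. Definition used: TGI = concentration required for complete inhibition of growth.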

Tests used:
Assay in all cases: DTP human tumour cell line panel, 48 h
NCI/ADR-RES ovarian = system: NCI/ADR-RES ovarian
RXF 393 renal = system: RXF 393 renal
NCI-H226 lung = system: NCI-H226 lung
HOP-62 NSCLC = system: HOP-62 NSCLC
OVCAR-8 ovarian = system: OVCAR-8 ovarian
SN12C renal = system: SN12C renal
HCT-15 colon = system: HCT-15 colon
HCC-2998 colon = system: HCC-2998 colon
UACC-257 melanoma = system: UACC-257 melanoma
SF-295 CNS = system: SF-295 CNS
NCI-H522 lung = system: NCI-H522 lung
BT-549 breast = system: BT-549 breast
SF-539 CNS = system: SF-539 CNS
MDA-MB-231 breast = system: MDA-MB-231 breast
K-562 leukemia = system: K-562 leukemia
SW-620 colon = system: SW-620 colon
HT29 colon = system: HT29 colon
MOLT-4 leukemia = system: MOLT-4 leukemia
LOX IMVI melanoma = system: LOX IMVI melanoma
SK-OV-3 ovarian = system: SK-OV-3 ovarian
NCI-H23 lung = system: NCI-H23 lung
U251 CNS = system: U251 CNS
T-47D breast = system: T-47D breast
COLO 205 colon = system: COLO 205 colon
M14 melanoma = system: M14 melanoma
SR leukemia = system: SR leukemia
UO-31 renal = system: UO-31 renal
RPMI-8226 leukemia = system: RPMI-8226 leukemia
MALME-3M melanoma = system: MALME-3M melanoma
A498 renal = system: A498 renal
HS 578T breast = system: HS 578T breast
SNB-19 CNS = system: SNB-19 CNS
MDA-MB-435 = system: MDA-MB-435
EKVX NSCLC = system: EKVX NSCLC
NCI-H460 lung = system: NCI-H460 lung
OVCAR-5 ovarian = system: OVCAR-5 ovarian
KM12 colon = system: KM12 colon
CCRF-CEM leukemia = system: CCRF-CEM leukemia
HL-60(TB) leukemia = system: HL-60(TB) leukemia
MCF7 breast = system: MCF7 breast
OVCAR-3 ovarian = system: OVCAR-3 ovarian
HOP-92 NSCLC = system: HOP-92 NSCLC
SK-MEL-5 melanoma = system: SK-MEL-5 melanoma
CAKI-1 renal = system: CAKI-1 renal
OVCAR-4 ovarian = system: OVCAR-4 ovarian
DU-145 prostate = system: DU-145 prostate
HCT-116 colon = system: HCT-116 colon
ACHN renal = system: ACHN renal
A549 NSCLC = system: A549 NSCLC
SK-MEL-2 melanoma = system: SK-MEL-2 melanoma
PC-3 prostate = system: PC-3 prostate
786-0 renal = system: 786-0 renal
SF-268 CNS = system: SF-268 CNS
IGROV1 ovarian = system: IGROV1 ovarian
TK-10 renal = system: TK-10 renal
SK-MEL-28 melanoma = system: SK-MEL-28 melanoma
UACC-62 melanoma = system: UACC-62 melanoma
SNB-75 CNS = system: SNB-75 CNS

COc1ccc(-c2nn(C(=O)c3cc(OC)c(OC)c(OC)c3)c3cc(N)ccc23)cc1
GI50 (NCI/ADR-RES ovarian): < 10 nM
TGI (NCI/ADR-RES ovarian): 2280 nM
GI50 (RXF 393 renal): < 10 nM
TGI (RXF 393 renal): 3980 nM
GI50 (NCI-H226 lung): 150 nM
TGI (NCI-H226 lung): 6710 nM
GI50 (HOP-62 NSCLC): < 15.3 nM
TGI (HOP-62 NSCLC): 6330 nM
GI50 (OVCAR-8 ovarian): < 15.6 nM
TGI (OVCAR-8 ovarian): 7280 nM
GI50 (SN12C renal): < 16.2 nM
TGI (SN12C renal): 10800 nM
GI50 (HCT-15 colon): < 10 nM
TGI (HCT-15 colon): 7210 nM
GI50 (HCC-2998 colon): 34.9 nM
TGI (HCC-2998 colon): 3790 nM
GI50 (UACC-257 melanoma): 5540 nM
TGI (UACC-257 melanoma): 39300 nM
GI50 (SF-295 CNS): < 10 nM
TGI (SF-295 CNS): 1750 nM
GI50 (NCI-H522 lung): < 10 nM
TGI (NCI-H522 lung): 1120 nM
GI50 (BT-549 breast): < 17.5 nM
TGI (BT-549 breast): 9560 nM
GI50 (SF-539 CNS): < 10 nM
TGI (SF-539 CNS): 1240 nM
GI50 (MDA-MB-231 breast): 13.3 nM
TGI (MDA-MB-231 breast): 12900 nM
GI50 (K-562 leukemia): < 10 nM
TGI (K-562 leukemia): 10500 nM
GI50 (SW-620 colon): < 10 nM
TGI (SW-620 colon): 23400 nM
GI50 (HT29 colon): < 14.2 nM
TGI (HT29 colon): 1130 nM
GI50 (MOLT-4 leukemia): 38.2 nM
TGI (MOLT-4 leukemia): 23700 nM
GI50 (LOX IMVI melanoma): < 10 nM
TGI (LOX IMVI melanoma): 5540 nM
GI50 (SK-OV-3 ovarian): 31.6 nM
TGI (SK-OV-3 ovarian): 7280 nM
GI50 (NCI-H23 lung): 29.2 nM
TGI (NCI-H23 lung): 15700 nM
GI50 (U251 CNS): < 10 nM
TGI (U251 CNS): 1870 nM
GI50 (T-47D breast): 2170 nM
TGI (T-47D breast): 7580 nM
GI50 (COLO 205 colon): 21.7 nM
TGI (COLO 205 colon): 48.9 nM
GI50 (M14 melanoma): < 11.8 nM
TGI (M14 melanoma): 19500 nM
GI50 (SR leukemia): < 10 nM
GI50 (UO-31 renal): < 19.6 nM
TGI (UO-31 renal): 5050 nM
GI50 (RPMI-8226 leukemia): < 18 nM
TGI (RPMI-8226 leukemia): 1840 nM
GI50 (MALME-3M melanoma): 2030 nM
TGI (MALME-3M melanoma): 14800 nM
GI50 (A498 renal): < 10 nM
TGI (A498 renal): < 17.1 nM
GI50 (HS 578T breast): < 17.9 nM
TGI (HS 578T breast): 39000 nM
GI50 (SNB-19 CNS): < 17.1 nM
TGI (SNB-19 CNS): > 100000 nM
GI50 (MDA-MB-435): < 10 nM
GI50 (EKVX NSCLC): < 18.7 nM
TGI (EKVX NSCLC): 51300 nM
GI50 (NCI-H460 lung): < 11.2 nM
TGI (NCI-H460 lung): 1740 nM
GI50 (OVCAR-5 ovarian): 1540 nM
TGI (OVCAR-5 ovarian): 27300 nM
GI50 (KM12 colon): < 10 nM
TGI (KM12 colon): 1830 nM
GI50 (CCRF-CEM leukemia): 24.9 nM
TGI (CCRF-CEM leukemia): 14300 nM
GI50 (HL-60(TB) leukemia): < 12.1 nM
TGI (HL-60(TB) leukemia): < 22 nM
GI50 (MCF7 breast): 22.6 nM
TGI (MCF7 breast): 2190 nM
GI50 (OVCAR-3 ovarian): < 10 nM
GI50 (HOP-92 NSCLC): 1860 nM
TGI (HOP-92 NSCLC): 25800 nM
GI50 (SK-MEL-5 melanoma): < 14.5 nM
TGI (SK-MEL-5 melanoma): 45.3 nM
GI50 (CAKI-1 renal): 14.5 nM
TGI (CAKI-1 renal): 8390 nM
GI50 (OVCAR-4 ovarian): < 19.5 nM
TGI (OVCAR-4 ovarian): 12900 nM
GI50 (DU-145 prostate): < 13 nM
TGI (DU-145 prostate): 345 nM
GI50 (HCT-116 colon): < 10 nM
TGI (HCT-116 colon): 1450 nM
GI50 (ACHN renal): < 15.1 nM
TGI (ACHN renal): 2670 nM
GI50 (A549 NSCLC): < 14.6 nM
TGI (A549 NSCLC): 3960 nM
GI50 (SK-MEL-2 melanoma): 2550 nM
TGI (SK-MEL-2 melanoma): 27600 nM
GI50 (PC-3 prostate): < 24.1 nM
TGI (PC-3 prostate): > 30300 nM
GI50 (786-0 renal): < 19.1 nM
TGI (786-0 renal): 3630 nM
GI50 (SF-268 CNS): < 14.8 nM
TGI (SF-268 CNS): 4430 nM
GI50 (IGROV1 ovarian): 20.7 nM
TGI (IGROV1 ovarian): 15900 nM
GI50 (TK-10 renal): 6090 nM
TGI (TK-10 renal): 27400 nM
GI50 (SK-MEL-28 melanoma): 1760 nM
TGI (SK-MEL-28 melanoma): 24300 nM
GI50 (UACC-62 melanoma): < 10 nM
TGI (UACC-62 melanoma): 15300 nM
GI50 (SNB-75 CNS): < 12.2 nM
TGI (SNB-75 CNS): 7760 nM
